Experimental data published in patent US10195156B2, “Compounds and compositions for intracellular delivery of agents” (ModernaTX, Inc., priority 2015, dated 2019).
Entries after “also recorded” stand apart in the source; their conditions may differ. Where two headings read alike, the source gives them in different places.

How the values were obtained:
[1] = Particle size and polydispersity index of nanoparticle compositions (Zetasizer Nano ZS); format: physicochemical
Procedure, shortened: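 Particle size and PDI were measured on a Zetasizer Nano ZS with the nanoparticle compositions dispersed in 1×PBS.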

[2] = Encapsulation efficiency of RNA (QUANT-IT RIBOGREEN RNA assay); format: physicochemical
Procedure, shortened: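 Nanoparticle samples diluted to ~5 μg/mL RNA in TE buffer (pH 7.5), incubated with or without 2% Triton X-100 solution at 37 °C for 15 min, then RiboGreen added. Fluorescence read at ~480/520 nm, blank-subtracted; free RNA % = intact over Triton-disrupted signal.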

[3] = test system: luciferase (Luc) mRNA expression; experiment: Expression of Luc induced by sample formulations, whole-body bioluminescence after intravenous administration; format: in vivo
Procedure, shortened: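 Mice (n=6) dosed intravenously with Luc mRNA nanoparticle formulations at 0.5 mg/kg. Whole-body bioluminescence measured at 3, 6 and 24 h. Standard MC3 formulation and PBS control run alongside.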

hEPO mRNA expression = experiment: Expression of hEPO in CD-1 mice; format: in vivo; conditions: for Lipid/MC3 hEPO CD-1 (mice): hEPO expression relative to MC3, CD-1 mice
Text: FIG. 12 is a set of graphs illustrating hEPO expression levels in CD-1 mice dosed with compounds of the disclosure, compared to MC3. PBS is used as control. […] In graphs A-C numbers 1-14 refer to compositions containing the following: 1: Compound 73, 2: Compound 80, 3: Compound 70; 4: Compound 81; 5: Compound 69; 6: Compound 82; 7: Compound 83; 8: Compound 62; 9: Compound 84; 10: Compound 85; 11: Compound 86; 12: Compound 87; 13: MC3; 14: PBS.
FIG. 13 is a graph showing hEPO levels (pg/mL) in CD-1 mice up to ˜25 h after administration of a nanoparticle composition containing compounds of the disclosure, compared to a composition containing MC3. Numbers 1-13 refer to compositions containing the following: 1: Compound 73, 2: Compound 80, 3: Compound 70; 4: Compound 81; 5: Compound 69; 6: Compound 82; 7: Compound 83; 8: Compound 62; 9: Compound 84; 10: Compound 85; 11: Compound 86; 12: Compound 87; 13: MC3. […]

[4] = Lipid levels in liver and spleen 48 hours after administration; format: in vivo, rats; conditions: for concentration at 48 h: Sprague-Dawley, rat, intravenous
Procedure, shortened: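 Rats (n=3 or 6) received lipid nanoparticle formulations intravenously at 0.2 mg/kg or 0.5 mg/kg. Liver and spleen were harvested and frozen 48 h after dosing, and the lipid amount remaining in each tissue was measured and expressed as a fraction of the dose.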

[5] = Table 1, rows without footnote mark
[6] = Table 1, rows without footnote mark (lipid:DOPE:cholesterol:PEG-DMG 40:20:38.5:1.5, Luc mRNA; MC3 standard formulation)
[7] = Table 5, hEPO mRNA, 40:20:38.5:1.5 Lipid:DOPE:Chol:PEG-DMG
[8] = Table 2, mice, i.v., 0.5 mg/kg, 3 hours
[9] = liver, 48 hours after administration, read-out: Lipid in liver
[10] = spleen, 48 hours after administration, read-out: Lipid in spleen
[11] = liver, 48 hours after administration
[12] = spleen, 48 hours after administration
[13] = Table 5, hEPO mRNA, 50:10:38.5:1.5 Lipid:DSPC:Chol:PEG-DMG
[14] = Table 20-1, rows without footnote mark
[15] = Table 17-2, mice, i.v., 0.5 mg/kg
[16] = Table 19-2, mice, i.v., 0.5 mg/kg
[17] = Table 20-2, mice, i.v., 0.5 mg/kg
[18] = Table 21-2, mice, i.v., 0.5 mg/kg

CCCCCCCCCCCCN(CCCCCCCCCCCC)CCN(CCCCCCCCCCCC)CCN1CCN(CCN(CCCCCCCCCCCC)CCCCCC(=O)OCCCCC)CC1 [Compound 12, Pentyl 6-((2-(4-(2-((2-(didodecylamino)ethyl)(dodecyl)amino)ethyl)piperazin-1-yl)ethyl)(dodecyl)amino)hexanoate]
PDI [1, 5]: 0.096 | Size (nm) [1, 6]: 87.8 nm | PDI [1, 7]: 0.13 | Size (nm) [1, 7]: 87.5 nm | EE (%) [2, 5]: 96.9% | EE (%) [2, 7]: 93.79% | Total Flux 3 hours [3, 8]: 1.06E+10 | Total Flux 6 hours ([3]; Table 2, mice, i.v., 0.5 mg/kg): 1.38E+10 | Total Flux 24 hours ([3]; Table 2, mice, i.v., 0.5 mg/kg): 6.03E+08 | Luc expression in mice compared with MC3 (in words) ([3]; Table 7a): significantly lower | hEPO expression in mice compared with MC3 (in words) (hEPO mRNA expression; Table 7a, mice): substantially higher | Lipid/MC3 hEPO CD-1 (mice) (hEPO mRNA expression): 2.3 | concentration at 48 h [4, 9]: 16800 ng/g | concentration at 48 h [4, 10]: 2320 ng/g | % remaining dose in liver [4, 11]: 23.8% | % remaining dose in spleen [4, 12]: 0.22%

CCCCCC=CCC=CCCCCCCCCC(CCCCCCCCC=CCC=CCCCCC)OC(=O)CCCN(C)C (stereo not shown) [MC3, heptatriaconta-6,9,28,31-tetraen-19-yl 4-(dimethylamino)butanoate, reference compound]
PDI [1, 5]: 0.117 | Size (nm) [1, 6]: 86.2 nm | PDI ([1]; Table 1b): 0.17 | Size (nm) ([1]; Table 1b): 74.7 nm | PDI [1, 13]: 0.11 | Size (nm) [1, 13]: 76.5 nm | PDI ([1]; Table 17-1): 0.138 | Size (nm) ([1]; Table 17-1): 83.8 nm | PDI ([1]; Table 19-1): 0.122 | Size (nm) ([1]; Table 19-1): 83.3 nm | PDI [1, 14]: 0.117 | Size (nm) [1, 14]: 84.0 nm | PDI ([1]; Table 21-1): 0.1191 | Size (nm) ([1]; Table 21-1): 91.4 nm | EE (%) [2, 5]: 97.70% | EE (%) ([2]; Table 1b): 97.3% | EE (%) [2, 13]: 97.37% | EE (%) ([2]; Table 17-1): 98.0% | EE (%) ([2]; Table 19-1): 97.6% | EE (%) [2, 14]: 97.4% | EE (%) ([2]; Table 21-1): 98.1% | Total Flux 3 hours [3, 8]: 1.63E+10 | Total Flux 6 hours ([3]; Table 2, mice, i.v., 0.5 mg/kg): 1.73E+10 | Total Flux 24 hours ([3]; Table 2, mice, i.v., 0.5 mg/kg): 1.16E+09 | Total Flux 3 hours ([3]; Table 17-2, mice, i.v., 0.5 mg/kg, 3 hours): 1.63E+10 | Total Flux 6 hours [3, 15]: 2.13E+10 | Total Flux 24 hours [3, 15]: 1.01E+09 | Total Flux 3 hours ([3]; Table 19-2, mice, i.v., 0.5 mg/kg, 3 hours): 1.53E+10 | Total Flux 6 hours [3, 16]: 1.73E+10 | Total Flux 24 hours [3, 16]: 1.13E+09 | Total Flux 3 hours ([3]; Table 20-2, mice, i.v., 0.5 mg/kg, 3 hours): 1.73E+10 | Total Flux 6 hours [3, 17]: 1.94E+10 | Total Flux 24 hours [3, 17]: 8.48E+08 | Total Flux 3 hours ([3]; Table 21-2, mice, i.v., 0.5 mg/kg, 3 hours): 1.69E+10 | Total Flux 6 hours [3, 18]: 2.87E+10 | Total Flux 24 hours [3, 18]: 2.23E+10 | total flux after 3 hours, rank within the named table (in words) ([3]; mice, i.v., 0.5 mg/kg, 3 hours): highest after 3 hours | total flux / Luc expression, rank within the named table (in words) ([3]; mice, i.v., 0.5 mg/kg, each time point): highest total flux; also recorded: highest luciferase expression | Lipid/MC3 hEPO CD-1 (mice) (hEPO mRNA expression): 1 | concentration at 48 h [4, 9]: 21800 ng/g | concentration at 48 h [4, 10]: 2780 ng/g | % remaining dose in liver [4, 11]: 51% | dose remaining in the liver after 48 hours [4, 11]: approximately 60% | % dose remainng Rat liver (48 h) ([4]; rat liver, 48 h): 43.11% | % remaining dose in spleen [4, 12]: 0.44%
